Measurements from US10674724B2, “Method of activating immune response in plants” (priority 2012, dated 2020).

Assays:
[1] = target: T1, NPR1-dependent oligomer on the PR-1 promoter (Arabidopsis thaliana, UniProt P93002); assay: Cross-linked-chromatin chromatography (3C Method); type: in vivo; settings: wild-type plants, region −734 to −833
T1 construct: in wild-type plants (WT), such an oligomer forms on the PR-1 promoter; endogenous in cells; host or cells: wild-type Arabidopsis plants
T1 sequence (P93002 1-593): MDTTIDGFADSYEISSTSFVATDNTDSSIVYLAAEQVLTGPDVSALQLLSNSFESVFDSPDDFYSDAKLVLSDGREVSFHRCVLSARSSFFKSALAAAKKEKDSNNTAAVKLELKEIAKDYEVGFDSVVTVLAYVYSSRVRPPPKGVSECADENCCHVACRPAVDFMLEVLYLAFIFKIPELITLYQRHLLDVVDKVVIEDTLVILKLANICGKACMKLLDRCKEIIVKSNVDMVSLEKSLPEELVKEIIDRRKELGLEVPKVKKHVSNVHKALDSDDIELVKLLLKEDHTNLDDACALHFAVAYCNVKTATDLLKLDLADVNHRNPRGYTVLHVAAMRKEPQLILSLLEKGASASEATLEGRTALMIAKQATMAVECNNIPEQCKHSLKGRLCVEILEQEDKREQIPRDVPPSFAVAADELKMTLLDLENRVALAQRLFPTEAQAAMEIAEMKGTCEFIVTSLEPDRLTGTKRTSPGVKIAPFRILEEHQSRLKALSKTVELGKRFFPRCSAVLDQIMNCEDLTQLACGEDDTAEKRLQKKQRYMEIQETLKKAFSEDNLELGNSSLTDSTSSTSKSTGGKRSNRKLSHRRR
Description: Plant treatment, cross-linking, sonication, and cross-linking reversal were performed as for chromatin-immunoprecipitation (Rochon et al., 2006). Chromatography was as described under “Chromatography”. qPCR was performed with PR1 and Ubiquitin5 primers. PR-1 values were normalized against Ubiquitin5 (see Table 1 for primer sequence).
Although there are no decisive methods to test the stoichiometry of a protein in vivo, it was determined whether or not NPR1-dependent oligomers form on DNA in vivo by combining chromatin cross-linking, gel filtration, and qPCR (the 3C Method). The rationale was that, if an NPR1-dependent oligomer forms on the PR1 promoter in vivo, the presence of PR1 should be detectable by qPCR in the void fraction of an S300 after the chromatin had been cross-linked and sheared by sonication.

Δ513 = target: T2, Δ513 (Arabidopsis thaliana, UniProt P93002); assay: Sephacryl S100 gel filtration of Strep-tagged Δ513; type: biochemical; settings: 1 mM SA
T2 construct: made in house; host or cells: E. coli
T2 sequence (P93002 513-593): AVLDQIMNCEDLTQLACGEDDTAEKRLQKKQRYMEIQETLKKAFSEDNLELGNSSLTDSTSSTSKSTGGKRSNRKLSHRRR
Description: Strep-tagged purified proteins in a final volume of 2 ml were subjected to gel filtration analysis on the Sephacryl S100 HR or Sephacryl S300 HR packed in 50 cm long HR 16 columns (GE Health) and equilibrated with S300 chromatography buffer (50 mM HEPES, pH 7.4, 250 mM NaCl. Elutions, in 0.5 ml fractions, were performed in the same buffer at a flow rate of 0.8 ml/min. Where indicated, proteins were incubated with 1 mM SA, 1 mM catechol, 1 mM 4-hydroxy benzoic acid, or 1 mM methyl-salicylate at room temperature for 30 min prior to chromatography as described above with the exception that the chromatography buffer was supplemented with 1 mM SA, 1 mM catechol, 1 mM 4-hydroxy benzoic acid, or 1 mM methyl-salicylate, respectively. In the case of the EDTA treatment, NPR1 was stripped of its metal by a 50 mM EDTA treatment of 30 min, followed by an incubation of 30 min with 1 mM SA prior to gel filtration. In this case, the chromatography buffer was supplemented with 1 mM SA.

[2] = test system: transcription activity of Δ513; assay: in vivo plant transcription assay, Δ513:DB co-expressed with BTB/POZ; type: cell-based, Arabidopsis thaliana; settings: 1 mM salicylic acid in medium
Description: Arabidopsis thaliana (Columbia) leaves were harvested from four-week-old plants grown at 21° C. (day) and 18° C. (night) with a ten-hour photoperiod and transferred to Petri dishes containing MS salts and micronutrients supplemented with B5 vitamins, 1% sucrose and 0.8% agar at a pH of 5.8. […] Coating of the gold particles and general procedures and preparation of the biolistic experiments were as per the manufacturer's instructions (Bio-Rad). After bombardment, leaves were kept in the conditions described above for a period of 24 hours before assaying. Enzyme assays were performed using the Dual-Luciferase Reporter Assay® system (Promega) following the manufacturer's instructions. Luminescence was measured on a Berthold Lumat LB9507 Luminometer (Bad Wildbad, Germany) and the data obtained represented the value of the reporter gene divided by the value of the internal standard and expressed as Relative Luciferase Units. To increase signal-to-noise ratio in some experiments, qPCR was performed to measure the amount of Firefly and Renilla Luciferases mRNA. The data was reported as Relative Expression and represented the value of the reporter mRNA divided by the value of the internal standard mRNA. The ratio obtained for Ga14 DB was assigned an arbitrary value of 1. […]
It was then determined whether or not the BTB/POZ could modulate the transcriptional properties of Δ513 (FIG. 5F). […]

For `O=C(O)c1ccccc1O` [SA, Salicylic acid], the “NPR1-dependent oligomer on the PR-1 promoter (void fraction, qPCR)” value [1] was “not after a treatment with SA”, the “stoichiometry of Δ513 after SA treatment (S100)” value (Δ513) was “consistent with that of a dimer” and the “transcription activity of Δ513 co-expressed with BTB/POZ in SA-treated cells” value [2] was “unaffected by the BTB/POZ”.
